Test results: US10786690B2, “Amide derivatives of polycaffeoylquinic acids, process for producing same and uses thereof” (TEMISIS, priority 2016, dated 2020)

Columns and labels:
IL-8 = IL-8 production by NHEKs in the inflammatory state (PMA), ELISA; assay type: cell-based, human; details: PMA 10 ng/ml 24 h, compounds 50 μM, dexamethasone 10 μM, relative to PMA induced control (100%)
Method: (§1) The study was carried out on Normal Human Epidermal Keratinocytes (NHEKs) (Lonza, CC-2507, origin: foreskin) in monolayer culture in Epilife medium (Invitrogen, M-EPI-500-A) containing the components of the Human Keratinocyte Growth Supplement (HKGS) mixture (Invitrogen, S-001-K) added separately, except hydrocortisone having anti-inflammatory properties.
(§2) For the quantification of IL-8 and PGE2, the inflammatory state of the NHEKs in culture was induced by treatment with PMA (phorbol myristate acetate/10 ng/ml/H2O) for 24 h. Induction of IL-6 was achieved by treatment with PMA (10 ng/ml/H2O) combined with calcium ionophore A23187 (2 μM/DMSO) in medium containing calcium at a concentration of 0.8 mM. […]
(§3) Quantification of the various inflammatory mediators was carried out with specific kits, based on a standard curve, according to the instructions provided by the kits' suppliers, R&D Systems and Cayman Chemical.
(§4) Before induction of the inflammatory state, the NHEKs were treated with the compounds and reference molecules for 2 h. The inflammatory state was then induced according to the conditions described in the methodology section, the culture supernatants were collected, and the various inflammatory mediators were quantified by the ELISA technique. […]

PGE2 = PGE2 production by NHEKs in the inflammatory state (PMA), ELISA; assay type: cell-based, human; details: PMA 10 ng/ml 24 h, compounds 50 μM, indomethacin 10 μg/ml, relative to PMA induced control (100%)
Method: as §1
For the quantification of IL-8 and PGE2, the inflammatory state of the NHEKs in culture was induced by treatment with PMA (phorbol myristate acetate/10 ng/ml/H2O) for 24 h. Induction of IL-6 was achieved by treatment with PMA (10 ng/ml/H2O) combined with calcium ionophore A23187 (2 μM/DMSO) in medium containing calcium at a concentration of 0.8 mM. TNF-α secretion was induced by a combination of PMA (10 ng/ml/H2O) and calcium ionophore A23187 (2 μM/DMSO) applied for 24 h (TNF-α) in medium containing 0.06 mM calcium. The reference molecules used are dexamethasone (10 μM/H2O) and indomethacin (10 μg/ml/ethanol).
(§5) The effect of the compounds was studied by applying them to the keratinocyte culture medium 2 h prior to induction of the inflammatory state as well as during induction (2 h for LTB4, 24 h for IL-8, PGE2, IL-6 and TNF-α).
(§6) Each condition was carried out in triplicate cultures and the supernatants were recovered at the end of the various treatments.
as §3
(§7) Before induction of the inflammatory state, the NHEKs were treated with the compounds and reference molecules for 2 h. The inflammatory state was then induced according to the conditions described in the methodology section, the culture supernatants were collected, and the various inflammatory mediators were quantified by the ELISA technique.
The effect of the compounds on PGE2 production is presented in FIG. 5 and is expressed as a percentage of the PMA treatment set at 100%.

IL-6 = IL-6 production by NHEKs in the inflammatory state (PMA + calcium ionophore, 0.8 mM Ca2+), ELISA; assay type: cell-based, human; details: PMA + calcium ionophore A23187, 0.8 mM Ca2+, compounds 50 μM, dexamethasone 10 μM, relative to induced control
Method: as §1
For the quantification of IL-8 and PGE2, the inflammatory state of the NHEKs in culture was induced by treatment with PMA (phorbol myristate acetate/10 ng/ml/H2O) for 24 h. […]
as §3, §7
The effect of the compounds on IL-6 production by NHEKs in the inflammatory state is shown in FIG. 6 and is expressed as a percentage of the treatment with PMA combined with calcium ionophore A23187 (under high-calcium conditions: 0.8 mM Ca2+).

TNF-α = TNF-α production by NHEKs in the inflammatory state (PMA + calcium ionophore, 0.06 mM Ca2+), ELISA; assay type: cell-based, human; details: PMA + calcium ionophore A23187 24 h, compounds 50 μM, dexamethasone 10 μM, relative to induced control
Method: as §1, §2, §3, §4

LTB4 = LTB4 production by NHEKs in the inflammatory state (arachidonic acid + calcium ionophore), ELISA; assay type: cell-based, human; details: arachidonic acid 1 μM + calcium ionophore A23187 2 h, compounds 50 μM, NDGA 2 μM, relative to induced control
Method: as §1
The induction of LTB4 production having a very fast kinetics, the scheme was adapted. In this case, the inflammatory state was induced for 2 h by applying arachidonic acid (a.a./1 μM/ethanol) combined with calcium ionophore A23187 (2 μM/DMSO). Nordihydroguaiaretic acid (NDGA) was used as reference molecule (2 μM/ethanol).
as §5, §6, §3, §7
The effects of the compounds on LTB4 production are shown in FIG. 8 and are expressed as a percentage of the treatment with arachidonic acid (a.a.) combined with calcium ionophore A23187 set at 100%.

[1] = tested on: female SKH-1 hairless mice; assay: TPA-induced skin inflammation in female SKH-1 hairless mice, macroscopic visual scoring; assay type: in vivo
Method: The study is performed on 18 female SKH-1 hairless mice, weighing roughly 20-25 g and divided into 3 groups (n=6/housed in pairs) under controlled temperature (24±2° C.) and humidity (50±20%) conditions and with a 12-hour reversed light cycle (light from 21:00 to 09:00) (food and water ad libitum).
The compounds to be tested are as follows: • Excipial® ointment (control) • PAT1657 (octyl-isochlorogenamide A) incorporated at 1.33% or 2.67% by mass in Excipial® ointment
The treatment groups are distributed as follows: • G1: induced skin inflammation+daily treatment with vehicle (Excipial® ointment) (Control), • G2: induced skin inflammation+treatment with PAT1657 incorporated at 1.33% by mass in Excipial® ointment (PAT1657/1.33%), • G3: induced skin inflammation+treatment with PAT1657 incorporated at 2.67% by mass in Excipial® ointment (PAT1657/2.67%). Induction and Maintenance of Skin Inflammation
Skin inflammation is induced for each mouse by daily dorsal cutaneous application to Zone A (FIG. 9) for 7 days (day 1 to day 7) of 100 μL of TPA acetone solution at a concentration of 0.2 mg/ml.
It is then maintained by cutaneous application every 2 days for 7 days (day 8 to day 14) of 100 μl of TPA acetone solution.
For the vehicle, the animals (G1) were treated daily by cutaneous application of 0.125 g of ointment on the backs of the mice just off the zone of application of TPA acetone solution (roughly 5 cm^2 area corresponding to zones A and B shown in FIG. 9), for 7 days from day 8 to day 14.
For compound PAT1657, the animals (G2 and G3) were treated by cutaneous application of 0.125 g of ointment on the backs of the mice just off the zone of application of TPA acetone solution (roughly 5 cm^2 area corresponding to zones A and B shown in FIG. 9), on days 8, 11 and 14.
Macroscopic visual scoring of skin inflammation is performed daily for each mouse from day 8 to day 15 by quantifying it according to the following scale (Guenon-Macé et al., 2015):
Macroscopic visual scoring of skin inflammation makes it possible to quantify the following parameters: • degree of skin inflammation in the TPA acetone solution application zone and in the ointment treatment zone corresponding to zone A in FIG. 9, • degree of skin inflammation in the ointment treatment zone and outside the TPA acetone solution application zone corresponding to zone B in FIG. 9, • degree of skin inflammation on the rest of the back corresponding to zone C in FIG. 9, • Overall macroscopic score of skin inflammation (total of the scores of the three zones A, B and C shown in FIG. 9). Result Animal Mortality

[2] = PAT1657 at 1.33% and 2.67% in Excipial ointment, relative to control, from day 10 onwards

SMILES: CCCCCCCCNC(=O)[C@]1(O)C[C@@H](OC(=O)/C=C/c2ccc(O)c(O)c2)[C@@H](O)[C@H](OC(=O)/C=C/c2ccc(O)c(O)c2)C1 [PAT1657, (2E,2′E)-((1R,2S,3R,5S)-2,5-dihydroxy-5-(octylcarbamoyl)cyclohexane-1,3-diyl) bis(3-(3,4-dihydroxyphenyl)acrylate)]
- IL-8 production (IL-8): inhibit/reduce IL-8 production to the baseline level
- PGE2 production (PGE2): very highly significantly decrease
- IL-6 production (IL-6): largest decreases and are more effective than dexamethasone itself
- TNF-α production (TNF-α): most marked effects and are more effective than dexamethasone itself
- LTB4 production (LTB4): block/decrease, in a very highly significant manner
- degree of skin inflammation, zone A (TPA application zone and treatment zone) ([1]; PAT1657 at 1.33% and 2.67% in Excipial ointment, cutaneous, days 8, 11, 14, relative to control, from day 13 onwards): significant decrease
- degree of skin inflammation, zone C (rest of the back) [1, 2]: significant decrease
- overall degree of skin inflammation (zones A, B and C) [1, 2]: significant decrease
- degree of skin inflammation, zone B (treatment zone outside TPA application zone) ([1]; PAT1657 at 1.33% and 2.67% in Excipial ointment, relative to control, from day 13 onwards): significant decrease
- reaction to application of the products ([1]; SKH-1 mice, cutaneous application of ointments): No reaction was observed
- intensity of skin inflammation from a macroscopic point of view ([1]; two doses, cutaneous application every 3 days, curative treatment, dose-dependent effect): significantly reduced
